Measured values: patent publication EP0623621A1, “Oxazabicyclo derivatives and their use as 5-HT4 receptor agonists” (NISSHIN FLOUR MILLING CO., LTD., priority 1993, dated 1994)

Tested on: longitudinal muscle with adherent myenteric plexus preparation
Assay: Gastrointestinal motility promoting action: increase of electrically induced twitch response of isolated guinea pig ileum
Type: cell-based, guinea pigs
Conditions: compound at 10⁻⁵ M, transmural electrical stimulation (1 msec, 0.1 Hz)
Procedure: The gastrointestinal motility promoting action of the present compounds was tested by the following method.
Ileum was excised from guinea pigs to prepare longitudinal muscle with adherent myenteric plexus preparation (approximately 2 cm length). The preparation suspended in organ bath containing Krebs-Henselite solution aerated with a mixed gas (5% CO₂, 95% O₂) were subjected to transmural electrical stimulation (1 msec, 0.1 Hz). Consistent twitch response induced by electrical stimulation and increase of twitch response induced by compound were recorded with an isometric transducer. The compounds were dissolved in distilled water or DMSO and tested at concentration of 10⁻⁵ M. The result is shown in terms of percent increase (%) in the contraction height by the electrical stimulation after administration of the compound relative to the contraction height before administration of the compound. Compound of Example 10 16.1% Compound of Example 29 22.4%

CC(C)=CCn1nc(C(=O)NC2CC3COCC(C2)N3Cc2ccc(F)cc2)c2ccccc21 (stereo not drawn) [Example 10, N-[endo-9-(p-fluorobenzyl)-3-oxa-9-azabicyclo[3.3.1]non-7-yl]-1-(3-methyl-2-butenyl)indazole-3-carboxamide]
percent increase (%) in the contraction height by the electrical stimulation after administration of the compound relative to the contraction height before administration of the compound: 16.1%

COc1cc(N)c(Cl)cc1C(=O)NC1CC2COCC(C1)N2Cc1ccc(F)cc1 (stereo not drawn) [Example 29, N-[endo-9-(p-fluorobenzyl)-3-oxa-9-azabicyclo[3.3.1]non-7-yl]-4-amino-5-chloro-2-methoxybenzamide]
percent increase (%) in the contraction height by the electrical stimulation after administration of the compound relative to the contraction height before administration of the compound: 22.4%
